Among the data in ChEMBL document CHEMBL4334438, “Discovery of novel glycogen synthase kinase-3α inhibitors: Structure-based virtual screening, preliminary SAR and biological evaluation for treatment of acute myeloid leukemia” (Eur J Med Chem, 2019) are Activity values, retold here.

For assay [1], the target named is Serine/threonine-protein kinase 32A (Homo sapiens) (UniProt Q8WU08). In words: Inhibition of recombinant full-length human STK32A at 1 uM assessed as residual activity at 1 uM using casein as substrate measured after 120 mins in presence of [gamma33P]ATP by scintillation counting method relative to control.
Assay [2] deals with Phosphatidylinositol 3-kinase C2 domain-containing subunit gamma (Homo sapiens) (UniProt O75747). In words: Inhibition of recombinant human PI3KC2gamma (468 to 1203 residues) at 1 uM assessed as residual activity at 1 uM using phosphatidylinositol as substrate measured after 40 mins by HTRF assay. On the technique in general: TR-FRET usually uses a lanthanide donor and a delayed reading to cut background.

For assay [3], the target named is Focal adhesion kinase 1 (Homo sapiens) (UniProt Q05397). The assay can be described thus: Inhibition of recombinant human FAK (411 to 686 residues) assessed as residual activity at 1 uM using EEEEYEEEEEEYYIIEEEEEEYEEEEEEYYEEEEEEKKKK as substrate at 40 mins in presence of [gamma-33ATP] by scintillation counting based radiometry assay relative to control.
Assay [4] deals with Serine/threonine-protein kinase DCLK2 (Homo sapiens) (UniProt Q8N568). The assay can be described thus: Inhibition of recombinant human DCAMKL2 (376 to end residues) assessed as residual activity at 1 uM using KKLNRTLSFAEPG as substrate at 40 mins in presence of [gamma-33ATP] by scintillation counting based radiometry assay relative to control.
Assay [5] addresses [Pyruvate dehydrogenase (acetyl-transferring)] kinase isozyme 2, mitochondrial (Homo sapiens) (UniProt Q15119). In words: Inhibition of human PDHK2 assessed as residual activity at 1 uM by radiometric method.
Assay [6] deals with Cyclin-dependent kinase 14/Cyclin-Y (Homo sapiens) (UniProt O94921+Q8ND76). The assay can be described thus: Inhibition of recombinant full length human CDK14/cyclinY assessed as residual activity at 1 uM in presence of [gamma-33ATP] by scintillation counting based radiometry assay relative to control. The assay is classed as protein-complex assay.
Assay [7] deals with Fibroblast growth factor receptor 4 (Homo sapiens) (UniProt P22455). The assay can be described thus: Inhibition of recombinant human FGFR4 (442 to 755 residues) assessed as residual activity at 1 uM using poly(Glu, Tyr) 4:1 as substrate at 40 mins in presence of [gamma-33ATP] by scintillation counting based radiometry assay relative to control.
The target in assay [8] is Mitogen-activated protein kinase 10 (Homo sapiens) (UniProt P53779). In words: Inhibition of human JNK3 assessed as residual activity at 1 uM using peptide as substrate after 40 mins by [gamma-33ATP] radiometric assay relative to control.
Assay [9] deals with Epidermal growth factor receptor (Homo sapiens), P00533 [T790M]. The assay can be described thus: Inhibition of recombinant human EGFR T790M mutant (696 to end residues) assessed as residual activity at 1 uM using poly(Glu, Tyr) 4:1 as substrate at 40 mins in presence of [gamma-33ATP] by scintillation counting based radiometry assay relative to control.
The test system of assay [10] is Mast/stem cell growth factor receptor Kit (Homo sapiens), P10721 [V560G]. In words: Inhibition of recombinant human C-Kit V560G mutant (544 to end residues) assessed as residual activity at 1 uM poly(Glu, Tyr) 4:1 as substrate incubated 40 mins in presence of [gamma-33ATP] by scintillation counting based radiometry assay relative to control.
Assay [11] addresses Protein-tyrosine kinase 2-beta (Homo sapiens) (UniProt Q14289). The assay can be described thus: Inhibition of recombinant human full length PYK2 assessed as residual activity at 1 uM using poly(Glu, Tyr) 4:1 as substrate measured after 40 mins in presence of [gamma33P]ATP by scintillation counting method relative to control.
The target of assay [12] is Tyrosine-protein kinase Yes (Homo sapiens) (UniProt P07947). The assay can be described thus: Inhibition of recombinant full-length human Yes at 1 uM assessed as residual activity at 1 uM using poly(Glu, Tyr) 4:1 as substrate measured after 40 mins in presence of [gamma33P]ATP by scintillation counting method relative to control.
Assay [13] deals with Tyrosine-protein kinase Fgr (Homo sapiens) (UniProt P09769). In words: Inhibition of recombinant human FGR (2 to end residues) assessed as residual activity at 1 uM using poly(Glu, Tyr) 4:1 as substrate at 40 mins in presence of [gamma-33ATP] by scintillation counting based radiometry assay relative to control.
The target in assay [14] is Myotonin-protein kinase (Homo sapiens) (UniProt Q09013). The assay can be described thus: Inhibition of recombinant human DMPK (1 to 549 residues) assessed as residual activity at 1 uM using KKSRGDYMTMQIG as substrate at 40 mins in presence of [gamma-33ATP] by scintillation counting based radiometry assay relative to control.
The target in assay [15] is MAP/microtubule affinity-regulating kinase 4 (Homo sapiens) (UniProt Q96L34). The assay can be described thus: Inhibition of recombinant full length human MARK4 assessed as residual activity at 1 uM using KKKVSRSGLYRSPSMPENLNRPR as substrate incubated for 40 mins in presence of [gamma-33ATP by scintillation counting based radiometry assay relative to control.
For assay [16], the target named is Muscle, skeletal receptor tyrosine-protein kinase (Homo sapiens) (UniProt O15146). In words: Inhibition of recombinant human MUSK (530 to end residues) assessed as residual activity at 1 uM using myelin basic protein as substrate measured after 40 mins in presence of [gamma33P]ATP by scintillation counting method relative to control.
Assay [17] concerns the target Tyrosine-protein kinase JAK1 (Homo sapiens) (UniProt P23458). The assay can be described thus: Inhibition of human JAK1 (866 to end residues) assessed as residual activity at 1 uM using GEEPLYWSFPAKKK as substrate after 40 mins by [gamma-33ATP] radiometric assay relative to control.
For assay [18], the target named is Serine/threonine-protein kinase BRSK1 (Homo sapiens) (UniProt Q8TDC3). The assay can be described thus: Inhibition of recombinant human BRSK1 ( 2 to end residues) assessed as residual activity at 1 uM using KKKVSRSGLYRSPSMPENLNRPR as substrate incubated for 40 mins in presence of [gamma-33ATP] by scintillation counting based radiometry assay relative to control.

In assay [19] the target is Ephrin type-A receptor 8 (Homo sapiens) (UniProt P29322). In words: Inhibition of recombinant human EphA8 (615 to 911 residues) assessed as residual activity at 1 uM using KTFCGTPEYLAPEVRREPRILSEEEQEMFRDFDYIADWC as substrate at 40 mins in presence of [gamma-33ATP] by scintillation counting based radiometry assay relative to control.
Assay [20] addresses Casein kinase I isoform delta (Homo sapiens) (UniProt P48730). The assay can be described thus: Inhibition of recombinant human CK1delta (1 to 294 residues) assessed as residual activity at 1 uM using KRRRALS(p)VASLPGL as substrate incubated for 40 mins in presence of [gamma-33ATP] by scintillation counting based radiometry assay relative to control.
Assay [21] addresses MAPK/MAK/MRK overlapping kinase (Homo sapiens) (UniProt Q9UQ07). In words: Inhibition of recombinant human MOK (1 to 343 residues) assessed as residual activity at 1 uM using RSRSRSRSRSRSRSR as substrate measured after 40 mins in presence of [gamma33P]ATP by scintillation counting method relative to control.

Tyrosine-protein kinase Fgr (Homo sapiens), sequence (P09769 2-529 limits assumed): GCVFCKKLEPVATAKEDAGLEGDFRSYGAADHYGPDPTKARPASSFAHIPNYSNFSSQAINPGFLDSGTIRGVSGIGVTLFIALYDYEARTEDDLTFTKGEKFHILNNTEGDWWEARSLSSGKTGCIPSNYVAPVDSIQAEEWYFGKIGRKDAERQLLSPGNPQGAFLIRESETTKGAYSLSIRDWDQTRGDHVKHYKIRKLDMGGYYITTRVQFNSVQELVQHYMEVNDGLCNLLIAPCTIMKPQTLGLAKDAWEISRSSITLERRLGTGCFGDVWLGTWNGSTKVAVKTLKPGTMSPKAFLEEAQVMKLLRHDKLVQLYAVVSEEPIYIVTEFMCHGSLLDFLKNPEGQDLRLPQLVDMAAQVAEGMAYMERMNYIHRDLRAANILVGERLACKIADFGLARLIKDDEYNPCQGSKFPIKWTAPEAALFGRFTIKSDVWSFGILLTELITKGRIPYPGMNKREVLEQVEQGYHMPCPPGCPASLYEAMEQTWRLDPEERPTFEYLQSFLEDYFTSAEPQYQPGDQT
Mast/stem cell growth factor receptor Kit (Homo sapiens), P10721 [V560G], sequence (P10721 whole entry V560G): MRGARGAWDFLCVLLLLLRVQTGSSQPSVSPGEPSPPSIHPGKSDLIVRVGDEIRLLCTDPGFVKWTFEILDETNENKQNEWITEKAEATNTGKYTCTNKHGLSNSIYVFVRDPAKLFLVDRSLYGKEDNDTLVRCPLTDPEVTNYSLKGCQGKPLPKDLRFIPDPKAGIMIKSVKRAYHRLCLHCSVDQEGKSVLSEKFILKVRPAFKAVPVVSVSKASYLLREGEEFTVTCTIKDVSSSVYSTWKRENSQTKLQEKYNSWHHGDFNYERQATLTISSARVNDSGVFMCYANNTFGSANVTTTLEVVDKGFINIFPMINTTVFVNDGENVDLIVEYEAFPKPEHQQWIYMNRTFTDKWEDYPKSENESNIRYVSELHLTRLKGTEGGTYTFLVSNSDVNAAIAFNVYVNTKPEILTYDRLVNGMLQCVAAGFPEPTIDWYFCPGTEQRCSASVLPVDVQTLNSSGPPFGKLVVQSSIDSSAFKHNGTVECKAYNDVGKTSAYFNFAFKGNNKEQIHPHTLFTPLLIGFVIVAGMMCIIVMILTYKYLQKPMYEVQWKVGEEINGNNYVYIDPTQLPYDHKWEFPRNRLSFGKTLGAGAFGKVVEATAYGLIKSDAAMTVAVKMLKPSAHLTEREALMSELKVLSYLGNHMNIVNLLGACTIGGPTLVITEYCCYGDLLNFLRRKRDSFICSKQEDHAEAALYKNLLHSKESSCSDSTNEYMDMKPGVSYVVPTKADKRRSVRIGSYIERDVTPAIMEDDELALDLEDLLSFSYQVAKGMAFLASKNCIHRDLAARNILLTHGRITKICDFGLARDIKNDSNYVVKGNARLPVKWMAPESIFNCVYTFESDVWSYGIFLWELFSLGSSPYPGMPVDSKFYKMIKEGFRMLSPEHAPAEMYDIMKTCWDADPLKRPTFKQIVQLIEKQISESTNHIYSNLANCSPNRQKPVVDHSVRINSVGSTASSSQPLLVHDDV
MAP/microtubule affinity-regulating kinase 4 (Homo sapiens), sequence (Q96L34 whole entry): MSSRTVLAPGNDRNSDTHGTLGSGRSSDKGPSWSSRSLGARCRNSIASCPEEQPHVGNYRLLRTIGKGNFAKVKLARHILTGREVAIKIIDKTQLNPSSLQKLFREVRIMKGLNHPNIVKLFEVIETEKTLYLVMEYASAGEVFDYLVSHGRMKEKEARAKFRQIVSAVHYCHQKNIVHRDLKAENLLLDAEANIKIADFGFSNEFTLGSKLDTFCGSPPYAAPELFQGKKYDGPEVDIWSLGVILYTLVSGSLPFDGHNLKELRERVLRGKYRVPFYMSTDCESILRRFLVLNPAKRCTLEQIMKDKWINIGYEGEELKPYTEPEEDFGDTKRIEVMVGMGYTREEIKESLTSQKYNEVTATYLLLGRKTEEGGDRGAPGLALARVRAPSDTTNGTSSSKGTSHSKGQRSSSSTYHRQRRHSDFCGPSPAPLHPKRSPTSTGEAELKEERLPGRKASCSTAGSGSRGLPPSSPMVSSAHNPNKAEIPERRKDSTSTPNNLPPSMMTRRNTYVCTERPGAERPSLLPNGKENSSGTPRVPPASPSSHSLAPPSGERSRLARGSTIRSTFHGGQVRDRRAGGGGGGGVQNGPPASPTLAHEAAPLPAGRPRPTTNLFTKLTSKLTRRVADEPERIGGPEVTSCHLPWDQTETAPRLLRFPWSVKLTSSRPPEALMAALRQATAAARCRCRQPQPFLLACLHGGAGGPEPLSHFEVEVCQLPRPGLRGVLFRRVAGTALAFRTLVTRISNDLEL
Fibroblast growth factor receptor 4 (Homo sapiens), sequence (P22455 22-802 limits assumed): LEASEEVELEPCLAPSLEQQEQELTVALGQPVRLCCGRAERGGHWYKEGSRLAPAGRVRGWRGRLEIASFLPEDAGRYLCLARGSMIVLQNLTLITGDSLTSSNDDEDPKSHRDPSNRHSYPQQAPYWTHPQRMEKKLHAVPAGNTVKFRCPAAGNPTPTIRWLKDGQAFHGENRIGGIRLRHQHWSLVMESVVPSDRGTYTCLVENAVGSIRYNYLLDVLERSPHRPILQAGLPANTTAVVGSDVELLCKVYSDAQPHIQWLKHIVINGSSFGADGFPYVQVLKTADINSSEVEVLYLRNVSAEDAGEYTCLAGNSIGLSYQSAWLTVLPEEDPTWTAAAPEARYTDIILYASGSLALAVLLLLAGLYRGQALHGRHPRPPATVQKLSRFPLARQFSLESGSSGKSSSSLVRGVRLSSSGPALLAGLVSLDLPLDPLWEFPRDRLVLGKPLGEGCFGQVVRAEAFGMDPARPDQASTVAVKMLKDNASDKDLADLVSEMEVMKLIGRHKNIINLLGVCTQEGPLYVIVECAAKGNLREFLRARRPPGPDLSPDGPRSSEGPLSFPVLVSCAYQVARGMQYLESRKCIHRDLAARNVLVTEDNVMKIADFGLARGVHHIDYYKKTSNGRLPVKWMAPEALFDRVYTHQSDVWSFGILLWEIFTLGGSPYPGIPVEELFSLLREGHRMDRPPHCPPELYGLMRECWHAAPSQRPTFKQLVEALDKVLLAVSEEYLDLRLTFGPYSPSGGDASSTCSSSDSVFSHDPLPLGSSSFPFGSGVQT
Phosphatidylinositol 3-kinase C2 domain-containing subunit gamma (Homo sapiens), sequence (O75747 whole entry, the tested form may be a part): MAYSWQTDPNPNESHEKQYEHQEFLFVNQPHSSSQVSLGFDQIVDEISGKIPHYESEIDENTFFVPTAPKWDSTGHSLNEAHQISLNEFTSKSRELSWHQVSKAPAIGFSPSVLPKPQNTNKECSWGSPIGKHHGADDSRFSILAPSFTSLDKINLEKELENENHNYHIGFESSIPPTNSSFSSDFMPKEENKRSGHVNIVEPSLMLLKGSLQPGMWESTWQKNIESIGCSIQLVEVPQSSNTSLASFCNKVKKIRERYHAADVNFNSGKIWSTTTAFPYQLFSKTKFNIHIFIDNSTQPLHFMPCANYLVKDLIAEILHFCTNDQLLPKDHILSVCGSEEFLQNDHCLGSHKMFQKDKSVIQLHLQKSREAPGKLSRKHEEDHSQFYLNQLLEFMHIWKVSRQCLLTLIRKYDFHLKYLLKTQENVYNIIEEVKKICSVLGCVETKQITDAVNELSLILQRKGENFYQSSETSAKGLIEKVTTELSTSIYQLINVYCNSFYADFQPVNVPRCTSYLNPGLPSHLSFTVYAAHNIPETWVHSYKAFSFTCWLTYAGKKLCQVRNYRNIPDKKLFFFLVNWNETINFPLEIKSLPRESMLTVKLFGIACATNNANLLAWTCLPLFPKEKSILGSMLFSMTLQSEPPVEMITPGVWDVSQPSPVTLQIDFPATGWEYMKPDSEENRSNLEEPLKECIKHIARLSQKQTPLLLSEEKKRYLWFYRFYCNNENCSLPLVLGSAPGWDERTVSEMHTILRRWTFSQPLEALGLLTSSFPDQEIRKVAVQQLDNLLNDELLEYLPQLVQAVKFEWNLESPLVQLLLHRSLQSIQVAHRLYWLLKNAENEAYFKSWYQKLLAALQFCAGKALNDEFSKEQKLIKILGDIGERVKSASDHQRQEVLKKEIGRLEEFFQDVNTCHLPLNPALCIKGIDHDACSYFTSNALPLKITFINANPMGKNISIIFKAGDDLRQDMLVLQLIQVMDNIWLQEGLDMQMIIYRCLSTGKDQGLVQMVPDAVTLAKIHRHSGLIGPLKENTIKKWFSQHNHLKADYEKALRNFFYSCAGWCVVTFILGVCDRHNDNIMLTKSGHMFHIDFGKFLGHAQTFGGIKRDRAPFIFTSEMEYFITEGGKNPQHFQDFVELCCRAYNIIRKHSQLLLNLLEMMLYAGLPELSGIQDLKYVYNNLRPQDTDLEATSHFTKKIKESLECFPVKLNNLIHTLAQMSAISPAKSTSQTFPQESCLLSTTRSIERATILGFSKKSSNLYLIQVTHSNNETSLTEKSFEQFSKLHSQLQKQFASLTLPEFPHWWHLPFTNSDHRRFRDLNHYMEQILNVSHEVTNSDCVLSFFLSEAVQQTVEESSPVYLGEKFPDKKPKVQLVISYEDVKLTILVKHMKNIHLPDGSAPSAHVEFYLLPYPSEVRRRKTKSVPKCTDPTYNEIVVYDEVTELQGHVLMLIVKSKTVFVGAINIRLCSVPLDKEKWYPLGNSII
Serine/threonine-protein kinase 32A (Homo sapiens), sequence (Q8WU08 whole entry, the tested form may be a part): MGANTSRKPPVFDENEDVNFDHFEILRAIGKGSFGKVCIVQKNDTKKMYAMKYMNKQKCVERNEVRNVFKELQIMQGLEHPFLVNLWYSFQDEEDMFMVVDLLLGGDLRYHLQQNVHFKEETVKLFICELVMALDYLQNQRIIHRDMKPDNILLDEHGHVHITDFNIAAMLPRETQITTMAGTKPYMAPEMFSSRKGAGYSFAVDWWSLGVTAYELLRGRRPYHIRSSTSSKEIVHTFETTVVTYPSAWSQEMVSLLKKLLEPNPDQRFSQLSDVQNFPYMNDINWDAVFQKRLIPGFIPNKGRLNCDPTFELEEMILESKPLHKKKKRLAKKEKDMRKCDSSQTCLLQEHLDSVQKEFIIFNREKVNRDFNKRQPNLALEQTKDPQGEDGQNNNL

Turning to `C=CCOC(=O)c1cc(-c2ccc(/C=C3/NC(=S)NC3=O)o2)ccc1Cl`, the Activity in assay [1] was found to be 101%; in [2], 77%; in assay [3], 105%; in assay [4], 104%; in [5], 107%; in assay [6] it was 91%. Further, the Activity stood at 95% in [7]; 100% in assay [8]; 90% in [9]; 100% in [10]; 104% in assay [11]; 90% in [12]. Also, the Activity in [13] worked out at 90%; in assay [14], 76%; in assay [15], 113%; in [16], 96%; in [17] it was 106%; in assay [18], 89%. The figures for the Activity in assay [19], in [20] and in [21] were 99%, 94% and 118%, respectively.
With `N=C1NC(=O)/C(=C\c2ccc(-c3cccc([N+](=O)[O-])c3)o2)S1`, the Activity in assay [1] was 100%; in assay [2], 90%; in assay [3] it was 105%; in assay [4], 102%; in assay [5] it was 102%; in assay [6] it was 84%. The Activity in assay [7] worked out at 106%; in [8] it was 112%; in [9] it was 101%; in assay [10] it was 92%; in assay [11], 103%; in assay [12], 76%. Besides, the Activity is 81% in [13]; 93% in assay [14]; 92% in [15]; 114% in assay [16]; 96% in assay [17]; 65% in assay [18]. Further, the Activity in assay [19] is 94%; in assay [20] it was 101%; in assay [21], 101%.
